The text below walks through data of patent US20170340648A1, “Pharmaceutical Compositions Affecting Bioenergetic Processes in a Eukaryotic Biological System and Methods of Treatment” (JOYCE BIOTECH CORP., priority 2016, published 2017).

“Also recorded” adds a separate entry of the source.

For data set [1] the following is noted: rat, in vivo; cited from earlier work.
Data set [2] deals with C2C12 murine myoblasts. The data set is classed as cell-based.
Description: In the experiment, immortalized murine C2C12 myoblast cells were exposed to various pre-assay growth conditions prior to being seeded into a Seahorse XF24 Extracellular Flux Analyzer cell culture plate. The basal oxygen consumption (OCR) and extracellular acidification (ECAR) rates were measured to establish baseline metabolic rates for each experimental culture condition. The cells were then metabolically perturbed by the successive addition of three different compounds that shift the bioenergetic profile of the cell.
The first compound added following the collection of baseline metabolic data was oligomycin.
The second agent injected, carbonyl cyanide-p-trifluoromethoxyphenylhydrazone (FCCP), is an ionophore that is a mobile ion carrier.
Rotenone, a Complex I inhibitor, is the third agent injected in sequence, it prevents the transfer of electrons from the Fe—S center in Complex I to ubiquinone (Coenzyme Q).
Rotenone exposure inhibits mitochondrial respiration and enables both the mitochondrial and non-mitochondrial fractions contributing to respiration to be calculated.
Statistical analysis was conducted via two-tailed Mann-Whitney U test of variance. U and P values were calculated using algorithms supplied by the Meta Numerics and ALGLIB statistical libraries. During calculations, when the value of N (the number of scores) was equal to or greater than 10, it was assumed that the sampling distribution was approximately normal, and a Z-ratio was also employed to calculate the value of P. The threshold for significance was set at P≦to 0.05 (Table 27A1 to Table 27F2).
C2C12 murine myoblast cells were placed into pre-assay growth condition categories and cultured for 24 hours.
CSC12 murine myoblast cells were seeded into a Seahorse XF24 24 well culture plate at a density of 10,000 cells/well in 100 microliters of Growth Medium.
The seeded XF24 culture plates were placed into a 37 degree Centigrade incubator at 10% CO2 for 24 hours. […]
The test system of data set [3] is glucocorticoid receptors. Conditions: cultured cells; cited from earlier work.

Consider `O=CC[C@@H](O)[C@H](O)[C@H](O)CO` [2-Deoxy-d-Glucose], for which, in data set [1], the cardiac toxicity entry is “cardiotoxicity”.
`C=C(C)[C@H]1Cc2c(ccc3c2O[C@@H]2COc4cc(OC)c(OC)cc4[C@@H]2C3=O)O1` [Rotenone]: in data set [2] (24 h pre-assay incubation for compositions, Rotenone 2.0 μM injected, basal and FCCP conditions), the “oxygen consumption rate (OCR) relative to Control condition” value was “significantly reduced; also recorded: decreased”. In addition, the “anaerobic metabolic activity as indicated by extracellular acidification rate (ECAR) relative to untreated control” value in data set [2] (basal, Met/Mife 25 uM/50 uM (Table 27A1), MET/KET 1 mM/50 uM (Table 27F3), Rotenone 2.0 μM) was “increased”.
In the case of `CC(=O)N1CCN(c2ccc(OCC3COC(Cn4ccnc4)(c4ccc(Cl)cc4Cl)O3)cc2)CC1` (stereo not shown) [ketoconazole], in data set [3], the glucocorticoid receptor activity result is reported as “antagonist”.
